Assay results reported in patent US20090042937A1, “[…] USE IN TREATING OR […]-RELATED DISEASES” (priority 2005, published 2009).
Several values for one entry are separate records, joined by “and”; a condition that tells them apart may be missing. Equal values may be shown once.

Columns and labels:
Experiment in all cases: Microarray gene expression in cardiac tissue of Tempol-fed mice
Format in all cases: in vivo
CD52 antigen (M55561) = settings: 5 mg/g of food from 14 to 31 months
Description: (§1) To assess the effects of Tempol on gene expression, Tempol was administered to experimental mice at a dose of 5 mg/g of food from 14 months to 31 months after birth. Mice receiving the same food without the addition of Tempol were used as a negative control. At the age of 31 months, the experimental animals were sacrificed and the hearts were surgically removed. The expression of a broad spectrum of genes in the cardiac tissue was assessed using chip-based microarray technology. Such chips are well known in the art and are widely used to assess gene expression.

[1] = tested on: Interferon α-induced 11.5 kd protein (P27) (AA120109); settings: 5 mg/g of food from 14 to 31 months
Description: as §1

[2] = tested on: Selenium-binding protein 2 (M32032); settings: 5 mg/g of food from 14 to 31 months
Description: as §1

Hsp-90 homolog (W62326) = settings: 5 mg/g of food from 14 to 31 months
Description: as §1

CD53 antigen (X97227) = settings: 5 mg/g of food from 14 to 31 months
Description: as §1

Cathepsin B (M65270) = tested on: Cathepsin B (M65270)
Description: as §1

[3] = tested on: Interferon-inducible protein (AA002526); settings: 5 mg/g of food from 14 to 31 months
Description: as §1

[4] = tested on: Interferon γ-inducible protein/IRG 47GTP-binding (M63690); settings: 5 mg/g of food from 14 to 31 months
Description: as §1

[5] = tested on: T-cell specific GTPase (U15636); settings: 5 mg/g of food from 14 to 31 months
Description: as §1

[6] = tested on: XPE UV-damaged DNA binding factor (W62091); settings: 5 mg/g of food from 14 to 31 months
Description: as §1

[7] = tested on: Immunophilin (FKBP25) (AA120298); settings: 5 mg/g of food from 14 to 31 months
Description: as §1

Cyclophilin A (AA116993) = settings: 5 mg/g of food from 14 to 31 months
Description: as §1

[8] = tested on: Serum amyloid P-component precursor (SAP) (Y00426)
Description: as §1

JAK-1 (AA066354) = tested on: JAK-1 (AA066354)
Description: as §1

[9] = tested on: XPE-DNA damage binding protein (AA104319); settings: 5 mg/g of food from 14 to 31 months
Description: as §1

[10] = tested on: Lymphocyte receptor/polyubiquitin (W13546); settings: 5 mg/g of food from 14 to 31 months
Description: as §1

[11] = cardiac tissue of experimental mice, Table 1

With `CC1(C)CC(O)CC(C)(C)N1[O]` [Tempol, 4-hydroxy-2,2,6,6-tetramethylpiperidine-1-oxyl] the Fold change (CD52 antigen (M55561); TEMPOL-treated vs control mice) was −3.5 fold, the “Expression, TEMPOL-treated mice (tp51, tp52, tp53)” value (from here on “Expression, TEMPOL-treated mice”) (CD52 antigen (M55561); individual mice) was 106 and 177 and 171 and the Fold change ([1]; TEMPOL-treated vs control mice) was −2.3 fold. For the same compound, the “Expression, TEMPOL-treated mice” value ([1]; individual mice) was 149 and 88 and 72, the Fold change ([2]; TEMPOL-treated vs control mice) was −2.1 fold and the “Expression, TEMPOL-treated mice” value ([2]; individual mice) was 554 and 600 and 670. The Fold change (Hsp-90 homolog (W62326); TEMPOL-treated vs control mice) was −2.4 fold, the “Expression, TEMPOL-treated mice” value (Hsp-90 homolog (W62326); individual mice) was 6 and 16 and 39 and the Fold change (CD53 antigen (X97227); TEMPOL-treated vs control mice) was −2.1 fold. For the same compound, the “Expression, TEMPOL-treated mice” value (CD53 antigen (X97227); individual mice) was 21 and −17 and −13, the Fold change (Cathepsin B (M65270); M65270, cardiac tissue, TEMPOL-treated vs control mice, 5 mg/g of food from 14 to 31 months) was −2.8 fold and the “Expression, TEMPOL-treated mice” value (Cathepsin B (M65270); M65270, cardiac tissue, individual mice, 5 mg/g of food from 14 to 31 months) was −12 and 6 and 13. For the same compound, the “expression of cathepsin B reduced” value (Cathepsin B (M65270); cardiac tissue of experimental mice, text restating Table 2) was 2.8 fold, the Fold change ([3]; TEMPOL-treated vs control mice) was −2.7 fold and the “Expression, TEMPOL-treated mice” value ([3]; individual mice) was 26 and 34 and 36. For the same compound, the Fold change ([4]; TEMPOL-treated vs control mice) was −2.0 fold, the “Expression, TEMPOL-treated mice” value ([4]; individual mice) was 29 and 20 and 1 and the Fold change ([5]; TEMPOL-treated vs control mice) was −2.0 fold. For the same compound, the “Expression, TEMPOL-treated mice” value ([5]; individual mice) was 146 and 79 and 164, the Fold change ([6]; TEMPOL-treated vs control mice) was −2.9 fold and the “Expression, TEMPOL-treated mice” value ([6]; individual mice) was 61 and 75 and 213. The Fold change ([7]; TEMPOL-treated vs control mice) was −2.1 fold, the “Expression, TEMPOL-treated mice” value ([7]; individual mice) was 200 and 154 and 164 and the Fold change (Cyclophilin A (AA116993); TEMPOL-treated vs control mice) was −2.1 fold. The “Expression, TEMPOL-treated mice” value (Cyclophilin A (AA116993); individual mice) was 12 and −14 and −10, the Fold change ([8]; Y00426, cardiac tissue, TEMPOL-treated vs control mice, 5 mg/g of food from 14 to 31 months) was −2.8 fold and the “Expression, TEMPOL-treated mice” value ([8]; Y00426, cardiac tissue, individual mice, 5 mg/g of food from 14 to 31 months) was 43 and 61 and 119. The “expression of serum amyloid P component precursor reduced” value [8, 11] was 2.8 fold, the Fold change (JAK-1 (AA066354); AA066354, cardiac tissue, TEMPOL-treated vs control mice, 5 mg/g of food from 14 to 31 months) was −5.1 fold and the “Expression, TEMPOL-treated mice” value (JAK-1 (AA066354); AA066354, cardiac tissue, individual mice, 5 mg/g of food from 14 to 31 months) was 124 and 22 and 30. For the same compound, the “expression of JAI(-1 reduced)” value (JAK-1 (AA066354); [11]) was 5.1 fold, the Fold change ([9]; TEMPOL-treated vs control mice) was −5.2 fold and the “Expression, TEMPOL-treated mice” value ([9]; individual mice) was 25 and 37 and 115. The Fold change ([10]; TEMPOL-treated vs control mice) was −55.2 fold and the “Expression, TEMPOL-treated mice” value ([10]; individual mice) was −16 and −66 and 1331.
